Where a SMILES comes first, the peptide text is derived from it. [ ]: non-standard residue; d: D form. Aib = CC(C)(N)C(=O)O
Columns and labels:
Type in all cases: cell-based, human
tumour cell lines = assay: DNA flow cytometry (PI/SSC) for apoptosis in tumour cell lines; details: 4 days
Protocol: • Figure 1 Fluorescence Anisotropy Assay. Average anisotropy values: (open square) binding assay for increasing concentrations of Bcl-XL at a fixed concentration of fluorescent Bak-BH3 peptide. […] The error bars represent standard deviations observed from triplicate experiments. • Figure 2 072RB: cell growth effects. Panel A: Cell growth of U937 cell line treated for four days every 24 h at a 1 µM 072RB concentration and every 48 h at 3, 5, 10 and 30 µM 072RB concentrations. U937 controls at day 4, cell number: 350,000 ±50,000. Number of cells seeded at day 0: 20,000. Arrows indicate treatment time. […] All cells were counted in a Burker chamber and values are expressed as percentage of the untreated control cell number. Only living cells identified by trypan blue exclusion staining were counted. […] Flow cytometry measurements of DNA content (evaluated by propidium iodide (PI) fluorescence intensity) and physical cell side-scattering (evaluated by SSC) in U937 cells treated with Int and 072RB at 10 µM, twice each 48h. […] Three main cell populations can be observed in the bivariate PI/SSC plots, one with low SSC and normal DNA content (that accounts for "live" cells in culture), another with high SSC and normal DNA content (cells undergoing "early stage of apoptosis") and another one with lower PI fluorescence (cells at "late stage of apoptosis" and debris). […]

caspase 9 = assay: Caspase 9 activation (FITC-LEHD-FMK, FACS analysis); details: 48 h
Protocol: (§1) The activation of caspase-9 (mitochondrial apoptosis) and caspase-3 (activated downstream of caspase-9), was evaluated in cell lines (10^6 cells/well in a 24 wells plate) incubated with different concentrations of 072RB (1, 10 µM for 24h, 48h and 72h, in complete RPMI medium + 10% FCS at 37°C, using the caspase-9 and caspase-3 Detection Kit (Calbiochem, Darmstadt, Germany). The assay utilizes LEHD-FMK or DEVD-FMK conjugated to fluorescein-isothiocyanate (FITC) as caspase-9 or caspase-3 in situ marker. FITC-LEHD-FMK and FITC-DEVD-FMK are cell permeable, non toxic, and irreversibly bind only to activated caspase-9 or -3 in apoptotic cells. Samples were run on a flow cytometer (FACSort, Becton Dickinson) equipped with an argon ion laser exiting FITC at 488nm, At least 10^5 events were analysed for each sample using the CellQuest computer program. Data are expressed as Log green fluorescence intensity (a.u.) vs cell number. Calibration was assessed with CALIBRITE particles (Becton Dickinson) using the AutoCOMP computer program.
(§2) Cells were incubated for 24, 48 and 72 h with 072RB (10 µM) or Int (10 µM), together with FITC-LEDH-FMK or FITC-DEVD-FMK, to detect caspase 9 and caspase 3 activation, respectively (FACS analysis). […] Furthermore, caspase 3, a downstream substrate of caspase 9, was progressively activated at increasing incubation times with 072RB. After 24 h of incubation 30% of U937, 35% of Namalwa, 22% of Jurkat cells, respectively, were positive for activated caspase 3; after 72 h of incubation 70% of U937, 60% of Namalwa, and 35% of Jurkat cells, respectively, had activated caspase 3. On the contrary, a negligible fraction of cells incubated with the Int peptide (1-3%), a % similar to that observed in untreated cells, expressed activated caspase 3.

caspase 3 = assay: Caspase 3 activation (FITC-DEVD-FMK, FACS analysis); details: for cells positive for activated caspase 3: 24 h; for cells with activated caspase 3: 72 h
Protocol: as §1, §2

Compound	cell death (alive, early- and late-apoptotic fractions) (tumour cell lines; three tumour cell lines, 5 to 10 µM)	fraction of cells expressing activated caspase 9 (caspase 9; Jurkat, 10 µM)	fraction of cells expressing activated caspase 9 (caspase 9; Namalwa, 10 µM)	fraction of cells expressing activated caspase 9 (caspase 9; U937, 10 µM)	cells positive for activated caspase 3 (caspase 3; Jurkat, 10 µM)	cells with activated caspase 3 (caspase 3; Jurkat, 10 µM)	cells positive for activated caspase 3 (caspase 3; Namalwa, 10 µM)	cells with activated caspase 3 (caspase 3; Namalwa, 10 µM)	cells positive for activated caspase 3 (caspase 3; U937, 10 µM)	cells with activated caspase 3 (caspase 3; U937, 10 µM)	cell death (alive, early- and late-apoptotic fractions) (tumour cell lines; three cancer lines, 10 µM)	fraction of cells expressing activated caspase 3 (caspase 3; 10 µM, cell line and time not specified, similar to untreated cells)
CC[C@H](C)[C@H](NC(=O)[C@H](CCCNC(=N)N)NC(=O)[C@H](CCCNC(=N)N)NC(=O)[C@H](CC(C)C)NC(=O)[C@H](CCC(=O)O)NC(=O)[C@H](CCC(N)=O)NC(=O)C(C)(C)NC(=O)[C@@H](NC(=O)[C@H](Cc1ccc(O)cc1)NC(=O)[C@@H](NC(=O)[C@H](CCC(=O)O)NC(=O)[C@@H]1CCCN1C(=O)[C@H](CCCNC(=N)N)NC(=O)[C@H](CCSC)NC(=O)[C@@H](N)CC(=O)O)[C@@H](C)CC)[C@@H](C)CC)C(=O)NCC(=O)N[C@@H](CC(=O)O)C(=O)N[C@@H](C)C(=O)N[C@@H](Cc1ccccc1)C(=O)N[C@@H](CC(N)=O)C(=O)NC(C)(C)C(=O)N[C@@H](Cc1ccc(O)cc1)C(=O)N[C@@H](CCCCN)C(=O)N[C@@H](CCCCN)C(=O)N[C@@H](Cc1c[nH]c2ccccc12)C(=O)N[C@@H](CCCCN)C(=O)N[C@@H](CCSC)C(=O)N[C@@H](CCCNC(=N)N)C(=O)N[C@@H](CCCNC(=N)N)C(=O)N[C@@H](CC(N)=O)C(=O)N1CCC[C@H]1C(=O)N[C@@H](Cc1ccccc1)C(=O)N[C@@H](Cc1c[nH]c2ccccc12)C(=O)N[C@H](C(=O)N[C@@H](CCCCN)C(=O)N[C@H](C(=O)N[C@@H](CCC(N)=O)C(=O)N[C@@H](CCCNC(=N)N)C(N)=O)[C@@H](C)CC)[C@@H](C)CC [Peptide 072RB] (H-DMRPEIYI[Aib]QELRRIGDAFN[Aib]YKKWKMRRNPFWIKIQR-NH2; N-terminus and C-terminus assumed)	Significant cell death	10-33%	15-35%	30-65%	22%	35%	35%	60%	30%	70%		
KKWKMRRNPFWIKIQR [Int, internalisation tag, a modified Q50P 16 aa Antennapedia IIIrd α-helix, reference compound]		1.3%	2.0%	1.5%							substantially inactive	1-3%

Source: patent publication EP1985629A1, “Pro-apoptotic molecules and therapeutic uses thereof” (UNIVERSITA DEGLI STUDI DI GENOVA, priority 2007, dated 2008)
